#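 Values below derive from 48-hour exposures of cells grown in 96-well plates, with endpoints linearly interpolated between the two concentrations bracketing the appropriate inhibition level. At the GI50, growth is halved.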 The source made the active and inactive calls. No stated cut-off is given here; in the data, active = GI50 up to about 1.1 µM and inactive = higher.
# Tests used:
# Test in all cases: growth of human tumour cells (NCI), 48 h
# [1] = tested on: SK-MEL-2
# [2] = tested on: IGROV-1
# [3] = tested on: MOLT-4
# [4] = tested on: UACC-62
# [5] = tested on: OVCAR-8
# [6] = tested on: CCRF-CEM
# [7] = tested on: MCF7
# [8] = tested on: SF-268
# [9] = tested on: SNB-75
# [10] = tested on: UACC-257
# [11] = tested on: HOP-62
# [12] = tested on: NCI-H23
# [13] = tested on: K562
# [14] = tested on: NCI/ADR-RES
# [15] = tested on: SF-295
# [16] = tested on: LOX IMVI
# [17] = tested on: A549
# [18] = tested on: SK-OV-3
# [19] = tested on: OVCAR-3
# [20] = tested on: ACHN
Structure (SMILES),GI50 [1],GI50 [2],GI50 [3],GI50 [4],GI50 [5],GI50 [6],GI50 [7],GI50 [8],GI50 [9],GI50 [10],GI50 [11],GI50 [12],GI50 [13],GI50 [14],GI50 [15],GI50 [16],GI50 [17],GI50 [18],GI50 [19],GI50 [20]
CC(C)[C@](O)(C(=O)OCC1CC[N+]2([O-])CC[C@@H](O)C12)[C@H](C)O (stereo partly drawn),62.2 µM (inactive),> 375 µM (inactive),> 375 µM (inactive),> 375 µM (inactive),> 375 µM (inactive),> 375 µM (inactive),> 375 µM (inactive),> 375 µM (inactive),126 µM (inactive),> 375 µM (inactive),> 375 µM (inactive),> 375 µM (inactive),> 375 µM (inactive),> 375 µM (inactive),> 375 µM (inactive),> 142 µM (inactive),> 375 µM (inactive),> 375 µM (inactive),> 375 µM (inactive),–
CCOC(=O)CN1CCS/C1=N/C#N,> 100 µM (inactive),> 100 µM (inactive),> 100 µM (inactive),> 100 µM (inactive),> 100 µM (inactive),> 100 µM (inactive),> 100 µM (inactive),> 100 µM (inactive),> 100 µM (inactive),> 100 µM (inactive),> 100 µM (inactive),> 87.5 µM (inactive),> 100 µM (inactive),> 100 µM (inactive),–,–,> 100 µM (inactive),> 100 µM (inactive),> 100 µM (inactive),–
Oc1nc2c(c(-c3ccccc3Cl)n1)COC/C2=C\c1ccccc1Cl,> 100 µM (inactive),43.9 µM (inactive),55.5 µM (inactive),> 100 µM (inactive),> 100 µM (inactive),49.3 µM (inactive),65.9 µM (inactive),> 100 µM (inactive),38.9 µM (inactive),> 100 µM (inactive),> 100 µM (inactive),> 100 µM (inactive),–,> 100 µM (inactive),94.8 µM (inactive),> 100 µM (inactive),–,> 100 µM (inactive),> 100 µM (inactive),> 100 µM (inactive)
CSCCC(NOC(=O)Cc1ccccc1)P(=O)(O)c1ccccc1 (stereo not drawn),> 100 µM (inactive),> 100 µM (inactive),> 100 µM (inactive),–,> 100 µM (inactive),> 100 µM (inactive),> 100 µM (inactive),–,> 100 µM (inactive),> 100 µM (inactive),> 100 µM (inactive),> 100 µM (inactive),> 100 µM (inactive),> 100 µM (inactive),> 100 µM (inactive),> 100 µM (inactive),> 100 µM (inactive),> 100 µM (inactive),> 100 µM (inactive),> 100 µM (inactive)
Nc1nc(=O)[nH]cc1F [FLUCYTOSINE],> 100 µM (inactive),> 100 µM (inactive),> 100 µM (inactive),> 100 µM (inactive),> 100 µM (inactive),–,> 100 µM (inactive),> 100 µM (inactive),–,24 µM (inactive),> 100 µM (inactive),> 100 µM (inactive),> 100 µM (inactive),> 100 µM (inactive),> 100 µM (inactive),> 100 µM (inactive),> 100 µM (inactive),> 100 µM (inactive),> 100 µM (inactive),> 100 µM (inactive)
O=NN(CCCl)C(=O)Nc1ccc(Cl)c(Cl)c1,> 82.2 µM (inactive),> 56.5 µM (inactive),> 100 µM (inactive),45.9 µM (inactive),71.6 µM (inactive),59.8 µM (inactive),38.5 µM (inactive),31.6 µM (inactive),> 100 µM (inactive),> 100 µM (inactive),0.546 µM (active),> 69.7 µM (inactive),36.9 µM (inactive),48.4 µM (inactive),48.5 µM (inactive),78.5 µM (inactive),> 100 µM (inactive),> 94.8 µM (inactive),41.9 µM (inactive),–
COC1CCC(CO)OO1 (stereo not drawn),47.9 µM (inactive),26.4 µM (inactive),33.9 µM (inactive),70.3 µM (inactive),–,13.9 µM (inactive),–,35.8 µM (inactive),43.9 µM (inactive),45.2 µM (inactive),9.64 µM (inactive),18.8 µM (inactive),4.73 µM (inactive),–,14.1 µM (inactive),–,–,> 100 µM (inactive),18 µM (inactive),38.2 µM (inactive)
CC(=O)NC(CCCCNC(=O)OC(C)(C)C)C(=O)O (stereo not drawn),–,> 100 µM (inactive),> 100 µM (inactive),> 100 µM (inactive),> 100 µM (inactive),> 100 µM (inactive),> 100 µM (inactive),> 100 µM (inactive),–,> 100 µM (inactive),> 100 µM (inactive),–,> 100 µM (inactive),> 100 µM (inactive),> 100 µM (inactive),> 100 µM (inactive),> 100 µM (inactive),–,> 100 µM (inactive),> 100 µM (inactive)
COc1ccc(NC(=S)NNC(=O)c2nsc3ccccc23)cc1,25.1 µM (inactive),35.1 µM (inactive),24.5 µM (inactive),27.7 µM (inactive),43.7 µM (inactive),–,–,34.4 µM (inactive),24.9 µM (inactive),36 µM (inactive),43.5 µM (inactive),41.8 µM (inactive),30.9 µM (inactive),–,–,34.4 µM (inactive),37.2 µM (inactive),–,22.2 µM (inactive),43.9 µM (inactive)
COc1ccc(C[C@H](N)C(=O)N2C[C@@H](CO)C[C@@H](n3cnc4c(N(C)C)ncnc43)C2)cc1,> 100 µM (inactive),> 100 µM (inactive),> 100 µM (inactive),> 100 µM (inactive),> 100 µM (inactive),> 100 µM (inactive),–,> 100 µM (inactive),–,> 100 µM (inactive),> 100 µM (inactive),> 100 µM (inactive),> 100 µM (inactive),–,> 100 µM (inactive),> 100 µM (inactive),> 100 µM (inactive),> 100 µM (inactive),> 100 µM (inactive),–
CC1=CC(O)C(O)C2(C)C1CC1OC(=O)C(O)C3C(C)C(O)C4(O)OCC13C42 (stereo not drawn),59.2 µM (inactive),15.9 µM (inactive),12.2 µM (inactive),84.3 µM (inactive),32.1 µM (inactive),7.05 µM (inactive),91.6 µM (inactive),133 µM (inactive),6.18 µM (inactive),103 µM (inactive),65.3 µM (inactive),49.5 µM (inactive),37.2 µM (inactive),242 µM (inactive),28.8 µM (inactive),37.8 µM (inactive),27.9 µM (inactive),49.9 µM (inactive),10.2 µM (inactive),–
COc1cc2c(oc(=O)c3cc4cc([Si](C)(C)C)oc4c(OC)c32)c2cccc(O)c12,> 100 µM (inactive),> 100 µM (inactive),> 100 µM (inactive),> 100 µM (inactive),> 100 µM (inactive),> 100 µM (inactive),–,> 100 µM (inactive),> 100 µM (inactive),> 100 µM (inactive),> 100 µM (inactive),> 100 µM (inactive),> 100 µM (inactive),–,> 100 µM (inactive),> 100 µM (inactive),> 100 µM (inactive),> 100 µM (inactive),> 100 µM (inactive),> 100 µM (inactive)
Cc1cn(C2CC(O)C(Cn3cc(Cn4nc(Br)c(=O)[nH]c4=O)nn3)O2)c(=O)[nH]c1=O (stereo not drawn),> 100 µM (inactive),–,> 100 µM (inactive),> 100 µM (inactive),> 100 µM (inactive),0.332 µM (active),> 100 µM (inactive),> 100 µM (inactive),> 100 µM (inactive),> 100 µM (inactive),> 100 µM (inactive),> 100 µM (inactive),–,> 100 µM (inactive),> 100 µM (inactive),–,> 100 µM (inactive),> 100 µM (inactive),> 100 µM (inactive),> 100 µM (inactive)
CC(=O)Nc1ccc2oc(=O)c3ccccc3c2c1,> 100 µM (inactive),> 100 µM (inactive),> 100 µM (inactive),50.9 µM (inactive),> 100 µM (inactive),> 100 µM (inactive),> 100 µM (inactive),> 100 µM (inactive),> 100 µM (inactive),> 100 µM (inactive),> 100 µM (inactive),> 100 µM (inactive),> 100 µM (inactive),> 100 µM (inactive),> 100 µM (inactive),> 100 µM (inactive),> 100 µM (inactive),–,> 100 µM (inactive),> 100 µM (inactive)
C=C1C(=O)O[C@@H]2/C=C(\C)CC/C=C(\C)CC[C@@]12O,9.38 µM (inactive),3.52 µM (inactive),1.41 µM (inactive),9.35 µM (inactive),1.91 µM (inactive),0.149 µM (active),2.17 µM (inactive),5.37 µM (inactive),–,4.86 µM (inactive),5.07 µM (inactive),1.67 µM (inactive),2.42 µM (inactive),10.6 µM (inactive),10.9 µM (inactive),1.9 µM (inactive),11.6 µM (inactive),15.6 µM (inactive),2.4 µM (inactive),1.59 µM (inactive)

# From ChEMBL document CHEMBL1201862, “PubChem BioAssay data set” (2004)
